Laboratory results reported in the supplement of paper PMC10307832.

Assays:
Experiment in all cases: relative viability (nuclei count vs DMSO), 5 days (fraction); higher = more cells survive
[1] = compound: CN(C)C[C@@H]1CCn2cc(c3ccccc32)C2=C(C(=O)NC2=O)c2cn(c3ccccc23)CCO1 [Ruboxistaurin] + O=C(CCCCCCC(=O)Nc1ccccc1)NO [Vorinostat] (partner 1 µM)
In short: (§1)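 Nuclei were stained with Hoechst during a one-step fixation (final 0.05% Triton X-100, 1% formaldehyde, 1 ug/ml Hoechst) carried out 5 days after dosing, then counted on 4× images. The cells, lung cancer lines in 1536-well plates, had been dosed by pin tool the day after seeding with one drug alone or a fixed anchor-drug dose plus five library-drug doses (not always all listed) in √10 steps. Relative viability is the nuclei count in treated wells divided by that in vehicle wells, and each value is the median of duplicate plates.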

[2] = compound: CN(C)C[C@@H]1CCn2cc(c3ccccc32)C2=C(C(=O)NC2=O)c2cn(c3ccccc23)CCO1 [Ruboxistaurin] + COc1cc2c(Oc3ccc(NC(=O)C4(C(=O)Nc5ccc(F)cc5)CC4)cc3F)ccnc2cc1OCCCN1CCOCC1 [Foretinib] (partner 0.25 µM)
In short: as §1

[3] = compound: CN(C)C[C@@H]1CCn2cc(c3ccccc32)C2=C(C(=O)NC2=O)c2cn(c3ccccc23)CCO1 [Ruboxistaurin] + CC(C)C[C@H](NC(=O)[C@H](Cc1ccccc1)NC(=O)c1cnccn1)B(O)O [Bortezomib] (partner 0.002 µM)
In short: as §1

[4] = compound: CN(C)C[C@@H]1CCn2cc(c3ccccc32)C2=C(C(=O)NC2=O)c2cn(c3ccccc23)CCO1 [Ruboxistaurin] + Cc1cc(Nc2cc(N3CCN(C)CC3)nc(Sc3ccc(NC(=O)C4CC4)cc3)n2)n[nH]1 [Tozasertib] (partner 0.1 µM)
In short: as §1

[5] = compound: CN(C)C[C@@H]1CCn2cc(c3ccccc32)C2=C(C(=O)NC2=O)c2cn(c3ccccc23)CCO1 [Ruboxistaurin] + CCNC(=O)c1noc(-c2cc(C(C)C)c(O)cc2O)c1-c1ccc(CN2CCOCC2)cc1 [Luminespib] (partner 0.01 µM)
In short: as §1

| Cell Line | relative viability ([1]; first compound 0.08 µM) | relative viability ([1]; first compound 0.8 µM) | relative viability ([1]; first compound 2.53 µM) | relative viability ([1]; first compound 8 µM) | relative viability ([2]; first compound 0.08 µM) | relative viability ([2]; first compound 0.8 µM) | relative viability ([2]; first compound 2.53 µM) | relative viability ([2]; first compound 8 µM) | relative viability ([3]; first compound 0.08 µM) | relative viability ([3]; first compound 0.8 µM) | relative viability ([3]; first compound 2.53 µM) | relative viability ([3]; first compound 8 µM) | relative viability ([4]; first compound 0.08 µM) | relative viability ([4]; first compound 0.8 µM) | relative viability ([4]; first compound 2.53 µM) | relative viability ([4]; first compound 8 µM) | relative viability ([5]; first compound 0.08 µM) | relative viability ([5]; first compound 0.8 µM) | relative viability ([5]; first compound 2.53 µM) | relative viability ([5]; first compound 8 µM) |
| --- | --- | --- | --- | --- | --- | --- | --- | --- | --- | --- | --- | --- | --- | --- | --- | --- | --- | --- | --- | --- |
| LU99A | 0.497 | 0.442 | 0.433 | 0.416 | 0.802 | 0.774 | 0.778 | 0.751 | 1.19 | 1.06 | 1.11 | 0.968 | 0.256 | 0.205 | 0.221 | 0.229 | 0.239 | 0.224 | 0.265 | 0.24 |
| LXF-289 | 0.858 | 0.787 | 0.777 | 0.918 | 1.01 | 0.895 | 0.966 | 1.04 | 1.03 | 0.941 | 0.976 | 1.06 | 0.216 | 0.157 | 0.195 | 0.209 | 0.679 | 0.628 | 0.677 | 0.754 |
| NCI-H23 | 0.425 | 0.564 | 0.548 | 0.453 | 1 | 0.897 | 1.1 | 0.936 | 1.2 | 0.871 | 1.01 | 0.929 | 0.446 | 0.304 | 0.357 | 0.368 | 0.23 | 0.213 | 0.225 | 0.2 |
| NCI-H322M | 0.878 | 0.753 | 0.737 | 0.556 | 0.947 | 0.922 | 0.981 | 0.627 | 1.2 | 1.16 | 1.16 | 1.28 | 0.49 | 0.426 | 0.431 | 0.346 | 0.836 | 0.718 | 0.766 | 0.399 |
| NCI-H441 | 0.953 | 0.989 | 0.787 | 0.724 | 0.87 | 0.884 | 1.18 | 0.938 | 0.636 | 0.296 | 0.431 | 0.448 | 0.663 | 0.594 | 0.638 | 0.554 | 0.407 | 0.276 | 0.355 | 0.338 |
| NCI-H460 | 0.859 | 0.651 | 0.711 | 0.316 | 1.03 | 0.904 | 1.08 | 0.996 | 1.1 | 1.03 | 0.916 | 0.824 | 0.411 | 0.257 | 0.405 | 0.29 | 0.0344 | 0.0361 | 0.0325 | 0.0312 |
| NCI-H520 | 0.883 | 0.723 | 0.735 | 0.672 | 0.628 | 0.693 | 1.05 | 0.786 | 0.856 | 0.66 | 0.806 | 0.423 | 0.477 | 0.456 | 0.398 | 0.456 | 0.227 | 0.182 | 0.227 | 0.225 |
| NCI-H596 | 0.817 | 0.428 | 0.578 | 0.576 | 0.817 | 0.671 | 0.766 | 0.679 | 0.978 | 0.443 | 0.932 | 1 | 0.932 | 0.8 | 0.729 | 0.889 | 0.93 | 0.943 | 1.26 | 0.794 |
| NCI-H647 | 0.673 | 0.447 | 0.725 | 0.719 | 1.27 | 0.832 | 1.19 | 1.32 | 1.21 | 0.817 | 0.869 | 1.3 | 0.199 | 0.272 | 0.369 | 0.172 | 0.17 | 0.114 | 0.217 | 0.232 |
| NCI-H650 | 0.456 | 0.383 | 0.454 | 0.717 | 1.11 | 1.01 | 1.06 | 1.2 | 0.816 | 0.698 | 0.927 | 0.915 | 0.81 | 0.685 | 0.82 | 0.863 | 0.841 | 0.7 | 0.875 | 0.938 |
| NCI-H661 | 0.869 | 0.773 | 0.781 | 0.94 | 1.05 | 0.996 | 1.07 | 1.07 | 0.887 | 0.664 | 0.883 | 0.88 | 0.366 | 0.332 | 0.372 | 0.344 | 0.883 | 0.817 | 0.942 | 1.01 |
| NCI-H727 | 1.1 | 1.14 | 1.13 | 1.28 | 1.15 | 0.718 | 0.84 | 0.645 | 0.974 | 0.85 | 0.986 | 0.69 | 0.69 | 0.463 | 0.579 | 0.536 | 0.345 | – | 0.355 | 0.323 |
| NCI-H838 | 0.813 | 0.665 | 0.742 | 0.734 | 1.13 | 0.923 | 1.19 | 0.998 | 0.876 | 0.772 | 1.09 | 0.618 | 0.28 | 0.246 | 0.287 | 0.292 | 0.292 | 0.239 | 0.425 | 0.382 |
| NCI-H1355 | 0.693 | 0.604 | 0.62 | 0.583 | 1.02 | 0.862 | 1.02 | 0.82 | 1.19 | 1.21 | 1.18 | 1.16 | 0.529 | 0.485 | 0.484 | 0.38 | 0.734 | 0.592 | 0.788 | 0.534 |
| NCI-H1437 | 0.834 | 0.724 | 0.825 | 0.798 | 1.29 | 1.21 | 1.37 | 1.38 | 0.64 | 0.461 | 0.526 | 0.516 | 0.434 | 0.365 | 0.378 | 0.417 | 1.17 | 1.1 | 1.17 | 1.22 |
